Measured values published in paper PMC11790956, “A microscale thermophoresis-based enzymatic RNA methyltransferase assay enables the discovery of DNMT2 inhibitors” (Communications Chemistry, 2025).

Key:
[1] = biological target: aptaSAH1&2 SAH split aptamer; test: Split aptamer (aptaSAH1&2) plate reader-based FRET ligand titration; assay type: binding, D. aromatica; conditions: for Kd: FRET, aptaSAH1&2 each 50 nM, λex = 485 nm, λem = 600 nm, read-out: apparent KD
Excerpt: In our study, we followed the aim of developing a fluorescent split aptamer SAH biosensor (Fig. 1A) from the natural non-split metH RNA aptamer. The concept of fluorescent split aptamers relies on a series of two or more independent fluorescently labeled aptamer oligonucleotides, able to assemble only in the presence of a specific target ligand. In a FRET-based approach, two fragments carry a FRET-pair of communicating fluorescent dyes, such that, upon excitation of the donor dye, the acceptor dye will only emit fluorescence if the dyes are in spatial proximity in the ligand-bound complex, thus indicating the presence of the analyte, i.e., SAH[23]. […] Accordingly, we evaluated two split aptamer fragments labeled with fluorescein (FAM) and tetramethylrhodamin (TAMRA) as a FRET-capable dye pair: aptaSAH1 and aptaSAH2 (Fig. 1B).
(§1) To establish our experimental setup, we mixed both aptamer fragment oligonucleotides at equimolar concentrations (final: 50 nM) and titrated series of SAH resp. SAM dilutions to this prototypical SAH biosensor. […] Furthermore, MST assays require only 10 µL of sample volume per capillary compared to 30 µL per well in a 96-well plate supporting high-throughput applications in material consumption.
MTase reaction mixtures were prepared analogously to the MST-based detection approach but on a 30 µL scale (minimum volume for 96-well half-area plates). Reactions were quenched at a given time by 0.3% SDS and supplemented with 3 µL of the 10× aptamer-containing detection master mix. Reaction mixtures were transferred in technical triplicates to black Greiner 96-well half-area plate and incubated for 1 h at room temperature. Afterward, plates were measured using a Tecan Spark 10 M plate reader equipped with a monochromator setup (λex = 485 nm; λem = 600 nm). Statistical analysis and plotting were performed in GraphPad Prism 7.01.

[2] = biological target: aptaSAH1&2 SAH split aptamer; test: Split aptamer (aptaSAH1&2) MST ligand titration; assay type: binding, D. aromatica; conditions: MST, aptaSAH1&2 each 50 nM
Description: as §1
To evaluate the effect of inhibitors on DNMT2 activity, we used two known inhibitors, SHO108 and SH112. These SAH derivatives were selected based on their documented efficacy for DNMT2[8],[26].
For MTase assay detection by MST, enzyme reaction mixtures with a total volume of 10 µL per single treatment condition were prepared and incubated for the desired reaction times. Inhibitors were added from corresponding DMSO stocks to a final DMSO concentration of max. 5%. Afterward, reactions were quenched at a given reaction time by the addition of 1 µL sodium dodecyl sulfate (SDS, solution, 3% in water) per 10 µL reaction mixture and mixed well by pipetting. Subsequently, 1 µL of a 10× aptamer-containing detection master mix (200 mM Tris, pH 8.5, 200 mM MgCl2, 3 M NaCl, 10 mM urea, 0.2% Brij, 500 nM aptaSAH1, 500 nM aptaSAH2) was added to the quenched MTase reaction and incubated for 1 h at room temperature. Reaction mixtures were loaded directly to MST capillaries without further purification or sample processing.
MST experiments were carried out in at least technical triplicates using a Monolith NT.115 instrument (NanoTemper Technologies) using Monolith standard capillaries and the blue excitation laser setup. The instrument was calibrated according to the manufacturer’s instructions. General settings were applied for all MST experiments as follows: manual temperature control: 25 °C, fluorescence measurement before MST: 4 s, MST (IR laser) on: 20 s, fluorescence after MST: 2 s, delay: 25 s. The laser power was adjusted to optimize the signal-to-noise ratio and the fluorescence signal. LED and MST power settings were chosen individually for each sample by adjusting the LED power to yield fluorescence signals of at least 300 units (blue laser) or 3000 units (red laser) and the MST power to achieve an appropriate thermophoretic response (standard setting: medium MST power). MST measurements were analyzed using the NT analysis software (version 1.5.41) and exported for statistical analysis and plotting in GraphPad Prism 7.01.

AptaFluor SAH aptamer = test: Commercial AptaFluor SAH assay kit (HTRF) ligand titration; assay type: binding; conditions: read-out: affinity KD
Description: To assess the suitability for sensing SAH in a steady-state enzymatic assay, we examined statistical Z-values at 50 nM SAH (which correspond to 5% SAM-to-SAH substrate conversion from 1 µM SAM substrate in a common RNA MTase reaction). By this, we determined an MST-based Z-value of 0.84 (FRET assay: Z = 0.57) highlighting the suitability of this framework for high-throughput screening (HTS) assay setups (Fig. 1E). For these reasons, we prefer the usage of the MST-based assay which the following chapter will focus on, but it is noteworthy that plate reader-based FRET assays were also found equally functional. Furthermore, we performed comparative assays with the commercial AptaFluor assay kit, which gave similar results to our assay in all respects (SI Fig. 2): Z-factor at 50 nM SAH = 0.84; SAH resp.
Radiometric DNMT2 assays were carried out as described previously. HTRF MTase assays with the commercial AptaFluor SAH assay kit (BellBrook Labs) were performed as described in the manufacturer’s manual in 96-well format.
SI Figure 1 . Displacement of FTAD by literature-known inhibitors in a microscale thermophoresis displacement a s s a y. Data is given as mean ± SD of triplicates. (A) MST traces of SHO108. […]
SI Figure 2. […] (B) D o se -response curves of the AptaFluor assay in the presence of the SAH or SAM ligand by plate reader-ba s e d HT R F ass ays (λex=33 2 nm; λem=620/665 nm). […]

metH aptamer = test system: metH aptamer; parameters: method as in PMID 20864509; conditions: cited from earlier work
METTL3/14 = biological target: T1, METTL3/14 (Homo sapiens, UniProt Q86U44); test: METTL3/14 enzymatic split aptamer MST assay; assay type: biochemical; conditions: 10 nM MTase, 120 nM RNA substrate, variable SAM; read-out: Michaelis-Menten constant KM
T1 construct: purchased BPS Bioscience BPS-100105
Description: Specifically, we studied the m^6A MTase METTL3/14 and the m^7G MTase S. aureus TrmD.
For MTase assay detection by MST, enzyme reaction mixtures with a total volume of 10 µL per single treatment condition were prepared and incubated for the desired reaction times. Inhibitors were added from corresponding DMSO stocks to a final DMSO concentration of max. […] Afterward, reactions were quenched at a given reaction time by the addition of 1 µL sodium dodecyl sulfate (SDS, solution, 3% in water) per 10 µL reaction mixture and mixed well by pipetting. […]
MST experiments were carried out in at least technical triplicates using a Monolith NT.115 instrument (NanoTemper Technologies) using Monolith standard capillaries and the blue excitation laser setup. […] General settings were applied for all MST experiments as follows: manual temperature control: 25 °C, fluorescence measurement before MST: 4 s, MST (IR laser) on: 20 s, fluorescence after MST: 2 s, delay: 25 s. The laser power was adjusted to optimize the signal-to-noise ratio and the fluorescence signal. LED and MST power settings were chosen individually for each sample by adjusting the LED power to yield fluorescence signals of at least 300 units (blue laser) or 3000 units (red laser) and the MST power to achieve an appropriate thermophoretic response (standard setting: medium MST power). […]

S. aureus TrmD = biological target: T2, S. aureus TrmD (Staphylococcus aureus, UniProt Q2FZ43); test: S. aureus TrmD enzymatic split aptamer MST assay; assay type: biochemical
T2 construct: made in house
T2 sequence (Q2FZ43 1-245): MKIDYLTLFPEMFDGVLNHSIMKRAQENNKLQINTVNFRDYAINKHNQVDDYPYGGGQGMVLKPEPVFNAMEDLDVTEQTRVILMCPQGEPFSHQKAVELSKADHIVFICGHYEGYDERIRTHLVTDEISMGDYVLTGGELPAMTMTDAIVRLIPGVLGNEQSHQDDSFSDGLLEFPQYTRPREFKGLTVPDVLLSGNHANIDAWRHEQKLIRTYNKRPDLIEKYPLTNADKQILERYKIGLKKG
Description: DNMT2 & S. aureus TrmD: 100 mM Tris-HCl, pH 8, 100 mM NH4OAc, 0.1 mM EDTA, 10 mM MgCl2, 10 mM DTT. For TrmD: 50 nM TrmD, 2 µM SAM, 1 µM tRNA^Leu.
For MTase assay detection by MST, enzyme reaction mixtures with a total volume of 10 µL per single treatment condition were prepared and incubated for the desired reaction times. Inhibitors were added from corresponding DMSO stocks to a final DMSO concentration of max. 5%. Afterward, reactions were quenched at a given reaction time by the addition of 1 µL sodium dodecyl sulfate (SDS, solution, 3% in water) per 10 µL reaction mixture and mixed well by pipetting. Subsequently, 1 µL of a 10× aptamer-containing detection master mix (200 mM Tris, pH 8.5, 200 mM MgCl2, 3 M NaCl, 10 mM urea, 0.2% Brij, 500 nM aptaSAH1, 500 nM aptaSAH2) was added to the quenched MTase reaction and incubated for 1 h at room temperature. […]
MST experiments were carried out in at least technical triplicates using a Monolith NT.115 instrument (NanoTemper Technologies) using Monolith standard capillaries and the blue excitation laser setup. […] General settings were applied for all MST experiments as follows: manual temperature control: 25 °C, fluorescence measurement before MST: 4 s, MST (IR laser) on: 20 s, fluorescence after MST: 2 s, delay: 25 s. The laser power was adjusted to optimize the signal-to-noise ratio and the fluorescence signal. […]

TrmD = conditions: read-out: reported IC50; cited from earlier work

T1 sequence (Q86U44 2-580 limits assumed): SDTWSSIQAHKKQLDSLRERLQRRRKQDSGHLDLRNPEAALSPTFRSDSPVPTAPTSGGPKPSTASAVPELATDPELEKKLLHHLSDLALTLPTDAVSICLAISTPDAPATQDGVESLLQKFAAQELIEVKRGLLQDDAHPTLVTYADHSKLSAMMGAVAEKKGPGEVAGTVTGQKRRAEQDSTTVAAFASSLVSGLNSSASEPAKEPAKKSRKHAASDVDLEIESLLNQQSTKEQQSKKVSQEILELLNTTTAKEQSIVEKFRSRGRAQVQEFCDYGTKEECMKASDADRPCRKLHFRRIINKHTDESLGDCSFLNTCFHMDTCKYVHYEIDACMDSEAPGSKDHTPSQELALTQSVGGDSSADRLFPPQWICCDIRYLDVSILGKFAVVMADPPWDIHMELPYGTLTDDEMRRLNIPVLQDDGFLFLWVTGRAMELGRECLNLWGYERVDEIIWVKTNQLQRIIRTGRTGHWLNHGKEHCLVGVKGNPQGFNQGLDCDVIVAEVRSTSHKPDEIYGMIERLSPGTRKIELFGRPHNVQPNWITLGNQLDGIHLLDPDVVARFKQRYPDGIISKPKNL
T1 sequence (Q9HCE5 2-456 partner limits assumed): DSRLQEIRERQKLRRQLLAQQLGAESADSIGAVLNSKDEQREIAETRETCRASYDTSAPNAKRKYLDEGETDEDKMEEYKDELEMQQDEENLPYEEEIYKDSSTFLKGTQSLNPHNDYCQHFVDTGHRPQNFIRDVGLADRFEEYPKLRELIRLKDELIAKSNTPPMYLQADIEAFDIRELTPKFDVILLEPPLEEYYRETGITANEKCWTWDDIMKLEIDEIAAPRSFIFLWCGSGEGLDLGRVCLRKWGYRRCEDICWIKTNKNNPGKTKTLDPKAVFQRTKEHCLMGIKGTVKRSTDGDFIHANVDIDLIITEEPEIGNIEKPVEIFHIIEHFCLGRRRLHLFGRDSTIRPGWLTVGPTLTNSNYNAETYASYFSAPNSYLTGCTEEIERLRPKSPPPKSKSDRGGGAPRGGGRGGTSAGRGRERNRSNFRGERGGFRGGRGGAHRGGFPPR

| Structure (SMILES) | Kd [1] [nM] | SAH over SAM selectivity ([1]; from FRET apparent KD values) [fold] | Kd [2] [nM] | Kd (AptaFluor SAH aptamer) [nM] | selectivity over other nucleosides (including SAM) (metH aptamer) | Kd (metH aptamer; isothermal titration calorimetry, read-out: apparent dissociation constant KD) [nM] | Km (METTL3/14) [µM] | IC50 (S. aureus TrmD) [nM] | IC50 (TrmD) [nM] |
| --- | --- | --- | --- | --- | --- | --- | --- | --- | --- |
| Nc1ncnc2c1ncn2[C@@H]1O[C@H](CSCC[C@H](N)C(=O)O)[C@@H](O)[C@H]1O [SAH, S-adenosylhomocysteine] | 18 | 300 | 24 | 26 | at least 100 fold | ~20 | – | – | – |
| C[S+](CC[C@H](N)C(=O)[O-])C[C@H]1O[C@@H](n2cnc3c(N)ncnc32)[C@H](O)[C@@H]1O (stereo partly drawn) [SAM, S-adenosylmethionine] | 5300 | – | 2500 | 5700 | – | – | 0.106 | – | – |
| O=c1nc[nH]c2scc(-c3ccccc3)c12 [phenylthieno-pyrimidinone, 5-phenylthieno[2,3-d]pyrimidin-4(1H)-one] | – | – | – | – | – | – | – | 8450 | 11000 |
